Laboratory results published in US11607407B2, “Dermal pharmaceutical compositions of 1-methyl-2′,6′-pipecoloxylidide and method of use” (priority 2010, dated 2023).
Where two headings read alike, the source gives them in different places.

Legend:
[1] = Effect of formulation pH on flux, Franz-diffusion cell, nylon membrane; type: in vitro ADME; settings: for Total flux: Mepivacaine 10% w/w, HPMC K4M 3% gel
Description: The influence of pH on the permeability of mepivacaine HCl from a variety of gel dosage forms was evaluated. The in-vitro drug release from gel formulations was studied across the Nylon 6, 6 membrane (0.22 μm) using Franz-diffusion cell with effective surface area of 3.14 cm^2 and receptor cell volume of 18 mL. The receptor compartment was filled with PBS pH 6.8 and maintained at 37±0.5° C. with constant magnetic stirring. 0.3-0.5 gm of gel was placed on the donor compartment. The samples (1 mL) were collected from the receptor compartment (dilutions made if required) at predetermined time interval for a period of 6-8 h and replaced by equal volume of fresh receptor solution to maintain constant volume. The amount of drug in the samples was assayed spectrophotometrically at 263 nm against appropriate blank. Studies were carried using HPMC K4M 3% as gelling agent with or without containing carvone (0.5%) as a penetration enhancer, so as to assess the effects of pH per se and pH in the presence of penetration enhancers. When Carbopol 3% was used as gelling agent, it gets precipitated out at pH below 5. HPMC gel formulations at pH 8.5 result in precipitation of mepivacaine from the gel. […] The maximum flux was obtained at pH 7.5.

[2] = test system: gp120 model of painful HIV-associated peripheral neuropathy; assay: Mechanical allodynia (hind paw withdrawal threshold), gp120 model; type: in vivo, rat; settings: for mechanical allodynia, difference from control: p ≤0.05
Text: (§1) This study evaluated the effects of topical mepivacaine in DMSO painful HIV-associated peripheral neuropathy. HIV peripheral neuropathy in the rat was induced by sciatic nerve exposure to gp120.
(§2) Under anesthesia, the left sciatic nerve of male rats was isolated by blunt dissection of the biceps, without damaging the perineurium. The HIV-1 viral envelope protein, gp120 was embedded in a carrier matrix and delivered directly to the sciatic nerve. The muscular layer was closed using 3-0 silk and the skin sealed with veterinarian-grade cyanoacrylate.
(§3) A gauze pad was saturated with either mepivacaine in DMSO (vehicle) or vehicle alone and secured to the left plantar hind paw for 5 min. Rats were immediately tested after removal of the pad. Rats were then tested again at 5, 10 and 15 minutes after removal of the pad. Mepivacaine was tested at various concentrations. The treatment assignment was masked. A period of 48 hrs was allowed between retesting of the rats. The continued presence of hyperalgesia in the rats was confirmed by pre-drug application baseline testing on each test day.
(§4) Plantar hind paw response to noxious heat and pressure application was evaluated before and one week following sciatic nerve surgery to confirm onset of hyperalgesia following gp120 administration. Following 15-20 min acclimation in the test chamber, a thermal heat stimulus was aimed at the mid-plantar hind paw as rats stand on a glass surface. The latency to a withdrawal response was recoded electronically. The stimulus intensity was adjusted to result in mean pre-surgical baseline latencies of approximately 12 seconds. Each hind paw was tested once to obtain a hind paw withdrawal latency. Mechanical allodynia was assessed by application of increasing pressure (32 g/sec) to the plantar hind paw over time. The withdrawal threshold (measured in grams) was reached when the rat withdrew its paw from the apparatus. The pre-surgical withdrawal threshold of naïve rats was about 175 g. Each hind paw was tested once to obtain a hind paw withdrawal threshold. Antinociception, or analgesia, was defined quantally as an increase in response over baseline.
(§5) Statistical analysis for thermal hyperalgesia and mechanical allodynia were performed and statistical significance was declared if the two-sided p-value was ≤0.05. All computations were performed using SigmaStat™ for Windows™, Version 3.5.

[3] = test system: gp120 model of painful HIV-associated peripheral neuropathy; assay: Thermal hyperalgesia (hind paw withdrawal latency), gp120 model; type: in vivo, rat; settings: for thermal hyperalgesia, difference from control: p ≤0.05
Text: as §1, §2, §3, §4, §5

[4] = test system: combined HIV viral envelope protein (gp120) and NRTI model of painful HIV-associated peripheral neuropathy; assay: Mechanical allodynia, zalcitabine plus gp120 model; type: in vivo, rat; settings: for mechanical allodynia, difference from control: p ≤0.05
Text: (§6) This study evaluated the effects of topical mepivacaine in DMSO painful HIV-associated peripheral neuropathy. HIV peripheral neuropathy in the rat was induced by sciatic nerve exposure to zalcitabine plus gp120.
as §2, with “cyanoacrylate. Rats received intravenous tail injection of zalcitabine.” for “cyanoacrylate.”
as §3
as §4, with “Each hind paw was tested once to obtain a hind paw withdrawal threshold. Antinociception, or analgesia, was defined quantally as an increase in response over baseline.” left out

[5] = test system: combined HIV viral envelope protein (gp120) and NRTI model of painful HIV-associated peripheral neuropathy; assay: Thermal hyperalgesia, zalcitabine plus gp120 model; type: in vivo, rat; settings: for thermal hyperalgesia, difference from control: p ≤0.05
Text: as §6
as §2, with “cyanoacrylate. Rats received intravenous tail injection of zalcitabine.” for “cyanoacrylate.”
as §3
as §4, with “Each hind paw was tested once to obtain a hind paw withdrawal threshold. Antinociception, or analgesia, was defined quantally as an increase in response over baseline.” left out

tail-flick model = assay: Tail-flick assay; type: in vivo, mice; settings: for tail-flick latency, difference from control: p ≤0.05
Description: This study evaluated the effects of topical in DMSO mepivacaine in the tail-flick model.
Male mice were maintained on a 12-h light/dark cycle with food and water available ad libitum. Mice were housed in groups of five until testing
Drugs were given topically in DMSO (vehicle) on the tail by immersion of the tail in treatment solution for 5 minutes. Tail-flick latencies were then determined on the region of the tail immersed in the drug, unless otherwise stated. Mice were immediately tested after removal of the tail from the treatment solution and retested at 5 and 10 minutes. Mepivacaine was tested at various concentrations. The treatment assignment was masked.
Analgesia was assessed with the tail-flick assay. Responses were measured by exposing the distal part of the tail to a thermal stimulus, and the latency of exposure was determined. The tail flick latency is the time interval between onset of the heat stimulus and withdrawal of the tail the thermal stimulus. Baseline latencies ranged from 2 to 3 s. Testing was performed immediately after termination of topical administration into the tail and at 5 and 10 minutes thereafter. Antinociception, or analgesia, was defined quantally as an increase in response over baseline.
Statistical analysis was performed and statistical significance was declared if the two-sided p-value was ≤0.05. All computations were performed using SigmaStat™ for Windows™, Version 3.5.

[6] = Solubility of mepivacaine base in formulation solvents; type: physicochemical; settings: 2.5 g in 2.5 g of propylene glycol
Text: 2.5 g Mepivacaine base was suspended in 2.5 g of propylene glycol.

[7] = cited from earlier work
[8] = test system: isolated dorsal root ganglion neurons from chick embryos; settings: cited from earlier work
[9] = in vivo; cited from earlier work
[10] = in vivo; cited from earlier work; remark: listed apart in the source
rat sciatic nerve = settings: cited from earlier work
postherpetic neuralgia = settings: Sindrup and Jensen; cited from earlier work
[11] = topical in DMSO, pad on hind paw 5 min

## Cc1cccc(C)c1NC(=O)C1CCCCN1C.Cl (racemic) [mepivacaine hydrochloride, 2-piperidinecarboxamide, N(2,6-dimethylphenyl)-1-methyl-, monohydrochloride]
[1]; HPMC gels pH 4.5-7.5
  formulation pH at which the maximum flux was obtained: 7.5

## Cc1cccc(C)c1NC(=O)C1CCCCN1C (stereo not drawn) [Mepivacaine, 1-methyl-2′,6′-pipecoloxylidide]
[2]; 2 mg/mL in DMSO
  mechanical allodynia, difference from control: significantly different from control
[2]; 4 mg/mL in DMSO
  mechanical allodynia, difference from control: significantly different from control
[2]; 8 mg/mL in DMSO
  mechanical allodynia, difference from control: significantly different from control
[2]; [11]
  antinociceptive effects for mechanical allodynia: short lived and variable antinociceptive effects
[3]; 2 mg/mL
  thermal hyperalgesia, difference from control: significantly different from control
[3]; 4 mg/mL
  thermal hyperalgesia, difference from control: significantly different from control
[3]; 8 mg/mL
  thermal hyperalgesia, difference from control: significantly different from control
[3]; [11]
  antinociceptive effects for thermal hyperalgesia: short lived and variable antinociceptive effects
[4]; 2 mg/mL
  mechanical allodynia, difference from control: significantly different from control
[4]; 4 mg/mL
  mechanical allodynia, difference from control: significantly different from control
[4]; [11]
  antinociceptive effects for mechanical allodynia: short lived and variable antinociceptive effects
[5]; 2 mg/mL
  thermal hyperalgesia, difference from control: significantly different from control
[5]; 4 mg/mL
  thermal hyperalgesia, difference from control: significantly different from control
[5]; [11]
  antinociceptive effects, section Thermal Hyperalgesia (text says mechanical allodynia): short lived and variable antinociceptive effects
tail-flick model; 4 mg/mL
  tail-flick latency, difference from control: significantly different from control
tail-flick model; 8 mg/mL
  tail-flick latency, difference from control: significantly different from control
tail-flick model; tail immersed 5 minutes in DMSO solution
  analgesia in tail-flick assay: short lived and variable analgesia
[1]; carvone 0.5% w/w, pH 4.5
  Total flux: 0.4251 mg/cm^2/hr
[1]; carvone 0.5% w/w, pH 5.5
  Total flux: 0.5847 mg/cm^2/hr
[1]; carvone 0.5% w/w, pH 6.8
  Total flux: 0.7245 mg/cm^2/hr
[1]; carvone 0.5% w/w, pH 7.5
  Total flux: 0.8035 mg/cm^2/hr
[1]; no carvone, pH 4.5
  Total flux: 0.4095 mg/cm^2/hr
[1]; no carvone, pH 5.5
  Total flux: 0.6000 mg/cm^2/hr
[1]; no carvone, pH 6.8
  Total flux: 0.7531 mg/cm^2/hr
[1]; no carvone, pH 7.5
  Total flux: 0.7442 mg/cm^2/hr
[6]
  solubility in propylene glycol: not sufficiently soluble
[7]
  solubility in EtOH: 40 g/100 ml
[8]
  IC50 in the growth cone collapse assay, rank among lidocaine, bupivacaine, mepivacaine, ropivacaine: highest
[9]
  administered dose excreted into the bile as metabolites: over 50%
  bound to plasma proteins: approximately 75%
  excreted unchanged in the urine: less than 10%
[10]
  irritation or tissue damage: does not ordinarily produce irritation or tissue damage
  methemoglobinemia: does not cause methemoglobinemia

## CCCCN1CCCCC1C(=O)Nc1c(C)cccc1C (stereo not drawn) [bupivacaine]
Rat sciatic nerve; 0.75% (23.1 mM)
  neuronal damage in rat sciatic nerve: do not

## CCN(CC)CC(=O)Nc1c(C)cccc1C [lidocaine]
[8]
  IC50 in the growth cone collapse assay, rank among lidocaine, bupivacaine, mepivacaine, ropivacaine: lowest
Rat sciatic nerve; 80 mM (2.17%)
  neuronal damage in rat sciatic nerve: induced neuronal damage

## COc1ccc2c3c1O[C@H]1C(=O)CC[C@@]4(O)[C@@H](C2)N(C)CC[C@]314 [oxycodone]
Postherpetic neuralgia
  NNT values in postherpetic neuralgia: 2.5

## COc1cc(CNC(=O)CCCC/C=C/C(C)C)ccc1O [topical capsaicin, capsaicin]
Postherpetic neuralgia
  NNT values in postherpetic neuralgia: 5.3
